Measured values: paper PMC11432771, “Sphaerococcenol A Derivatives: Design, Synthesis, and Cytotoxicity” (Marine Drugs, 2024)

Legend:
A549 cells = test: MTT cytotoxicity assay, A549 cells; assay type: cell-based; conditions: for IC50: MTT assay, 24 h, 1–100 µM, 95% confidence interval in parentheses; for SI (A549): SI = IC50 of FL83B/IC50 on A549
Excerpt: (§1) Three malignant cell lines (between passages 10 and 25) obtained from the DMSZ-German Collection of Microorganisms and Cell Cultures GmbH biobank were used: A549 (lung carcinoma), DU-145 (prostate carcinoma), and MCF-7 (breast adenocarcinoma). MCF-7 (ACC-115) and DU-145 (ACC-261) cells were maintained in RPMI 1640 medium (Merck, Darmstadt, Germany) supplemented with 10% FBS (fetal bovine serum, Biowest, Riverside, MO, USA) and 1% antimycotic and antibiotic solution (Biowest, Nuaillé, France). A549 (ACC-107) cells were maintained in DMEM:F12 medium (Merck, Darmstadt, Germany) and also supplemented with 10% FBS (Biowest, Riverside, MO, USA) and a 1% solution of antimycotic and antibiotic (Biowest, Nuaillé, France). FL83B hepatocytes (FL83B; ATCC: CLR-2390) were used as the non-malignant cell line. The cells were cultured in F-12K medium supplemented with FBS 10% (Biowest, Riverside, MO, USA) and 1% solution of antimycotic and antibiotic (Biowest, Nuaillé, France).
(§2) The effects of sphaerococcenol A and its analogues (1–6) on the viability of malignant cell lines were studied through three distinct assays, 3-(4,5-dimethylthiazol-2-yl)-2,5-diphenyltetrazolium bromide (MTT), lactate dehydrogenase (LDH) activity, and calcein-AM, targeting different cellular biomarkers. Untreated cells with DMSO (<0.2%) were used as control, and saponin (0.4 mg/mL) (Sigma, Darmstadt, Germany) was used as the positive control for cell death.
(§3) The cells were incubated with compounds at different concentrations (1–100 µM) for 24 h. After the 24 h was over, cells were washed with PBS buffer (pH = 7.4) and incubated for 60 min with the MTT solution (1.2 mM) previously prepared in a fresh medium. The MTT solution was then removed, and 100 µL of dimethyl sulfoxide (DMSO) was added to dissolve the formazan crystals. The results were expressed as the half-maximal inhibitory concentration (IC50) after reading the absorbance at 570 nm using a microplate reader (Synergy H1, BioTek Instruments, USA). The selectivity index (SI) was calculated as the ratio of the IC50 value for a normal cell line to the IC50 value for the corresponding tumor cell line (SI = IC50 of non-malignant cell line/IC50 of malignant cell line), where an SI ≥ 2 of a compound represents a selective toxicity towards malignant cells, while an SI value < 2 is considered generally toxic.
(§4) The data were obtained from at least three independent experiments (n = 3) carried out in triplicate and presented as mean ± standard error of the mean (SEM). The data were checked for normality and homoscedasticity. […] A one-way analysis of variance (ANOVA) with Dunnett′s multiple comparison of group means was employed to determine significant differences to the control treatment and/or a two-way ANOVA with Bonferroni’s test. All other post hoc analyses were conducted using Tukey’s test. The differences were considered significant at a level of 0.05 (p < 0.05). The inhibitory concentrations (IC50) were determined by means of the equation y = 100/(1 + 10(x − logIC50)). All data were analyzed using the software SPSS v28.0.0.0 (SPSS Inc., Chicago, IL, USA) and GraphPad v8.0.2 (GraphPad Software, Inc., La Jolla, CA, USA).

DU-145 cells = test: MTT cytotoxicity assay, DU-145 cells; assay type: cell-based; conditions: for SI (DU-145): SI = IC50 of FL83B/IC50 on DU-145; for IC50: Homo sapiens, DU-145, MTT assay, 24 h, 1–100 µM, 95% confidence interval in parentheses
Excerpt: as §1, §2, §3, §4

MCF-7 cells [1] = test: MTT cytotoxicity assay, MCF-7 cells; assay type: cell-based; conditions: for IC50: MTT assay, 24 h, 1–100 µM, 95% confidence interval in parentheses; for SI (MCF-7): SI = IC50 of FL83B/IC50 on MCF-7
Excerpt: as §1, §2, §3, §4

FL83B hepatocytes = test: MTT cytotoxicity assay, non-malignant FL83B hepatocytes; assay type: cell-based; conditions: non-malignant cell line, 24 h, 1–100 µM, 95% confidence interval in parentheses
Excerpt: Three malignant cell lines (between passages 10 and 25) obtained from the DMSZ-German Collection of Microorganisms and Cell Cultures GmbH biobank were used: A549 (lung carcinoma), DU-145 (prostate carcinoma), and MCF-7 (breast adenocarcinoma). MCF-7 (ACC-115) and DU-145 (ACC-261) cells were maintained in RPMI 1640 medium (Merck, Darmstadt, Germany) supplemented with 10% FBS (fetal bovine serum, Biowest, Riverside, MO, USA) and 1% antimycotic and antibiotic solution (Biowest, Nuaillé, France). A549 (ACC-107) cells were maintained in DMEM:F12 medium (Merck, Darmstadt, Germany) and also supplemented with 10% FBS (Biowest, Riverside, MO, USA) and a 1% solution of antimycotic and antibiotic (Biowest, Nuaillé, France). FL83B hepatocytes (FL83B; ATCC: CLR-2390) were used as the non-malignant cell line. The cells were cultured in F-12K medium supplemented with FBS 10% (Biowest, Riverside, MO, USA) and 1% solution of antimycotic and antibiotic (Biowest, Nuaillé, France). […]
as §3, with “After the 24 h was over, cells were washed with PBS buffer (pH = 7.4) and incubated for 60 min with the MTT solution (1.2 mM) previously prepared in a fresh medium. The MTT solution was then removed, and 100 µL of dimethyl sulfoxide (DMSO) was added to dissolve the formazan crystals.” left out
The data were obtained from at least three independent experiments (n = 3) carried out in triplicate and presented as mean ± standard error of the mean (SEM). […] The inhibitory concentrations (IC50) were determined by means of the equation y = 100/(1 + 10(x − logIC50)). All data were analyzed using the software SPSS v28.0.0.0 (SPSS Inc., Chicago, IL, USA) and GraphPad v8.0.2 (GraphPad Software, Inc., La Jolla, CA, USA).

[2] = tested on: A549, DU-145, and MCF-7 malignant cells; test: MTT cytotoxicity assay, stated across the three malignant cell lines; assay type: cell-based; conditions: SI = IC50 of FL83B/IC50 of malignant cell line; over A549, DU-145, MCF-7
Excerpt: Three malignant cell lines (between passages 10 and 25) obtained from the DMSZ-German Collection of Microorganisms and Cell Cultures GmbH biobank were used: A549 (lung carcinoma), DU-145 (prostate carcinoma), and MCF-7 (breast adenocarcinoma). MCF-7 (ACC-115) and DU-145 (ACC-261) cells were maintained in RPMI 1640 medium (Merck, Darmstadt, Germany) supplemented with 10% FBS (fetal bovine serum, Biowest, Riverside, MO, USA) and 1% antimycotic and antibiotic solution (Biowest, Nuaillé, France). […]
as §3, with “After the 24 h was over, cells were washed with PBS buffer (pH = 7.4) and incubated for 60 min with the MTT solution (1.2 mM) previously prepared in a fresh medium. The MTT solution was then removed, and 100 µL of dimethyl sulfoxide (DMSO) was added to dissolve the formazan crystals.” left out
The data were obtained from at least three independent experiments (n = 3) carried out in triplicate and presented as mean ± standard error of the mean (SEM). […] The inhibitory concentrations (IC50) were determined by means of the equation y = 100/(1 + 10(x − logIC50)). […]

U373 cells = tested on: U373 cells; parameters: method as in PMID 20045651; conditions: inhibiting the cell entry into the mitosis phase; cited from earlier work
MCF-7 cells [3] = tested on: MCF-7 cells; parameters: method as in PMID 35378501; conditions: previous studies; cited from earlier work

Compound | IC50 (A549 cells; Homo sapiens, A549, 24 h) [µM] | SI (A549) (A549 cells) | SI (DU-145) (DU-145 cells) | IC50 (MCF-7 cells [1]) [µM] | SI (MCF-7) (MCF-7 cells [1]) | IC50 (A549 cells) [µM] | IC50 (FL83B hepatocytes) [µM] | IC50 (DU-145 cells) [µM] | selectivity index across the malignant cell lines [2] | IC50 (MCF-7 cells [1]; Homo sapiens, MCF7, 24 h) [µM] | effect on human apoptosis-resistant U373 cells (U373 cells) | events accompanying decrease in MCF-7 cell viability (MCF-7 cells [3])
CCCSC1CC(=O)[C@@](C)(O)[C@H]2[C@@H]3C=CC[C@@H](C(C)C)[C@@]3(CBr)CC[C@]12C (single isomer, unassigned) [Compound 2] | 33.8 | 1.4 | 1.9 | 70.3 | 0.7 |  |  |  |  |  |  | 
CCCSC1CC(=O)[C@@](C)(O)[C@H]2[C@@H]3C=CC[C@@H](C(C)C)[C@@]3(CBr)CC[C@]12C (single isomer, unassigned) [Compound 3] |  | 2.5 | 2.8 | 14.3 | 4.0 | 22.5 | 56.7 |  |  |  |  | 
CC(C)[C@@H]1CC=C[C@H]2[C@@H]3[C@](C)(O)C(=O)CC(SCc4ccccc4)[C@@]3(C)CC[C@]12CBr (stereo partly drawn) [Compound 4, (4S,4aS,4bS,8S,8aS,10aS)-1-(Benzylthio)-8a-(bromomethyl)-4-hydroxy-8-isopropyl-4,10a-dimethyl-1,4,4a,4b,7,8,8a,9,10,10a-decahydrophenanthren-3(2H)-one] | 35.5 | 1.1 | 0.6 |  | 1.3 |  | 40.3 | 70.1 | 0.6–1.3 |  |  | 
CC(C)C1CC=CC2C3C(C)(CCC(O)C3(C)O)CCC21CBr (stereo not drawn) [Compound 5] |  | 3.7 | 4.4 |  | 2.6 |  |  |  |  |  |  | 
CC(C)C1CC=CC2C3C(C)(CCC(O)C3(C)O)CCC21CBr (stereo not drawn) [Compound 6] |  | 1.9 | 3.1 |  | 2.9 |  |  |  |  |  |  | 
CC(C)[C@@H]1CC=C[C@H]2[C@H]3[C@@](C)(C=CC(=O)[C@@]3(C)O)CC[C@]12CBr [Sphaerococcenol A] | 15 | 2.5 | 10.0 |  | 5.7 |  | 37.4 | 3.75 |  | 6.53 | cytostatic effect | production of hydrogen peroxide, changes in mitochondrial membrane potential, the stimulation of Caspase-9 activity, and nuclear morphology alterations
